Reference: article PMC3038607 (Journal of the American Chemical Society, 2011)

Target: T1, dimethylarginine dimethylaminohydrolase (DDAH) (Pseudomonas aeruginosa, UniProt Q9I4E3)
T1 sequence (Q9I4E3 1-254): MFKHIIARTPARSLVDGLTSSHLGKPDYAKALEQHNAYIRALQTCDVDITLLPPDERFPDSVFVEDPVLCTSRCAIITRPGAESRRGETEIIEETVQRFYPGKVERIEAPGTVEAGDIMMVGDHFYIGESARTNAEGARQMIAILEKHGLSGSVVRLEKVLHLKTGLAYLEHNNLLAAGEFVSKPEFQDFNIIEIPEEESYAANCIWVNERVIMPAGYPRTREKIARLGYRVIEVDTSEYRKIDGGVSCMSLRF
Assay: time-dependent inactivation kinetics
Format: biochemical
Settings: read-out: Ki

Cc1cc(Br)ccn1 [compound 1, 4-bromo-2-methylpyridine]
KI (inactivation): 2.6 ± 0.8 mM
